For one experiment, the target named is GST-Tagged Kat6B (Homo sapiens (Human), UniProt Q8WYB5). Description: Kat6B IC50 using GST-tagged Kat6B (radioisotope-based filtration assay). The settings on record: 60 minutes preincubation with enzyme; Histone H4 peptide substrate; 1 μM Acetyl-CoA; read-out: Biochemical assay:Kat6B IC50. Here is the method: (§1) Compounds were suspended in as a stock of 10 mM in DMSO. Compounds were diluted and tested in 10-doses with 3-fold serial dilutions starting with 10 μM as the highest concentration. Compounds were preincubated in the reaction mixture with the enzyme (5 nM KAT6A, amino acids 488-778 with an N-terminal FLAG tag incorporated; 10 nM […] protein, amino acids 657-1069 with an N-terminal GST tag). This preincubation was for 60 minutes prior to the addition of substrate. […] Reactions were performed in reaction buffer 50 mM Tris-HCl, pH 8.0, 50 mM NaCl, 0.1 mM EDTA, […], 1% DMSO and the reactions initiated with the addition of Acetyl-CoA as a co-factor, with histone acetylation measured with a radiometric activity assay using a radioisotope-based filtration assay. Inhibition of acetylation was calculated using with standard curve-fitting model and IC50 determination.
GST-Tagged Kat6B, sequence (Q8WYB5 657-1069): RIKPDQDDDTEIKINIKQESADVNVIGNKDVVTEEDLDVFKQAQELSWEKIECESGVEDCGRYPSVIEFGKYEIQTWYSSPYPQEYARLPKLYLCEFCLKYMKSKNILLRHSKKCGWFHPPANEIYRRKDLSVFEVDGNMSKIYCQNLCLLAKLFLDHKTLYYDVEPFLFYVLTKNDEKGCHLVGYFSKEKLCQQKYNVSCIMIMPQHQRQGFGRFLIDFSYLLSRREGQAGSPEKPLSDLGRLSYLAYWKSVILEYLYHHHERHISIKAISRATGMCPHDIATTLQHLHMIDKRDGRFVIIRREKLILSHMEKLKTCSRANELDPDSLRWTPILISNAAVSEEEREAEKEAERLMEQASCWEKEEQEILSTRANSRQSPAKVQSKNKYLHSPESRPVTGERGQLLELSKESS

Experiment [1] has as its target Recombinant KAT6A/MOZ (488-778) protein (Homo sapiens (Human), UniProt Q92794). Description: KAT6A AlphaLISA Inhibition Screening Assay. Type of experiment: biochemical. To be noted: for Average Kat6A % inhibition @ 1 μM / inhibition at 1 µM: 1 μM test compound; for Average Kat6A % inhibition @ 10 μM / inhibition at 10 µM: 10 μM test compound; for inhibition at 1 µM: read-out: Average Kat6A % inhibition @ 1 μM; for inhibition at 10 µM: read-out: Average Kat6A % inhibition @ 10 μM. In short, it runs like this:
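AlphaLISA read-out with anti-acetyl-lysine acceptor and streptavidin donor beads, % inhibition relative to vehicle. Reaction: biotinylated histone H3 1-21 (200 nM) and acetyl-CoA (400 nM) with KAT6A 488-778 (25 nM), 120 min at room temperature, pH 8.0, 330 nM TSA, after 60 or 10 min enzyme–compound pre-incubation; 10-point 3-fold series from 10 μM.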
For orientation: In Alpha technology, singlet oxygen from a donor bead excites a nearby acceptor bead.

The next experiment has as its target FLAG-Tagged Kat6A (Homo sapiens (Human), UniProt Q92794). Description: KAT6A IC50 using FLAG-tagged Kat6A (radioisotope-based filtration assay). To be noted: 60 minutes preincubation with enzyme; Histone H3 peptide substrate; 1 μM Acetyl-CoA; read-out: Biochemical assay:Kat6A IC50. Here is the method:
as §1

The next experiment has as its system ZR-75-1 cells. Description: Cell Titer-Glo Luminescent Cell Viability Assay in ZR-75-1 Cells. Type of experiment: cell-based. To be noted: compounds replenished every 48 hours till day 10, CellTiter-Glo. The procedure:
The CellTiter-Glo® Luminescent Cell Viability Assay is a homogeneous method employed to determine the number of metabolically active cells in culture. On day 0, ZR-75-1 cells were detached completely from the culture flasks using 0.25% trypsin-EDTA (Catalog #25200056, Gibco). ZR-75-1 cells were seeded into white opaque-96 well culture plate (Catalog #6005680, Perkin Elmer) at a density of 1500 cells per well in 200 μL of RPMI 1640 medium (Catalog #A1049101, Gibco) supplemented with 10% Fetal Bovine Serum (Catalog #16000044, Gibco) and 1× Penicillin-Streptomycin (Catalog #15140122, Gibco). The plates were incubated at 37° C. with 5% CO2 for 24 hours. On day 1, the spent media was removed from each well of the plate and 180 μL of fresh RPMI 1640 complete media was added. Test compounds were diluted in 100% DMSO followed by complete media. 20 μL of media containing compounds were added to each well so that the final DMSO concentration was 0.5%. The test compounds were tested for 10 points DRC (10 μM top concentration, 3-fold dilution). The assay plates were incubated at 37° C. with 5% CO2 for 48 hours. The test compounds and media were replenished every 48 hours till day 10.
On day 10, the CellTiter-Glo® 2.0 reagent (Catalog #G9242, Promega) was thawed and equilibrated to room temperature. Assay plates were removed from the incubator and equilibrated to room temperature for about 30 minutes. 100 μL of spent media was removed from each well and then 50 μL of CellTiter-Glo® 2.0 Reagent was added. The plates were incubated on an orbital shaker at room temperature for 10 minutes to induce cell lysis and stabilize luminescent signal. The luminescent signal was recorded using Perkin Elmer Envision multi-mode plate reader. Percent cytotoxicity induced by test compounds was determined relative to vehicle control. EC50 value for test compounds was calculated using GraphPad Prism software (four parameter-variable slope equation).

FLAG-Tagged Kat6A, sequence (Q92794 488-778): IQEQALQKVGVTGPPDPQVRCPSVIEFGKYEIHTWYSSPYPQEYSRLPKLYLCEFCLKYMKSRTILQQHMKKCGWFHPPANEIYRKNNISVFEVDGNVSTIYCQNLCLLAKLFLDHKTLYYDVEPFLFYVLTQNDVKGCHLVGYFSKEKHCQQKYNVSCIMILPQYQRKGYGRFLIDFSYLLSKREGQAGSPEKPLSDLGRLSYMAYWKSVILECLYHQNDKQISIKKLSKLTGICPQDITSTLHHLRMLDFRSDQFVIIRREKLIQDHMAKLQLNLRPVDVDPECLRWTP
Recombinant KAT6A/MOZ (488-778) protein, sequence (Q92794 488-778): as above

What is called IC50 is the point on the concentration scale where inhibition reaches its midpoint. By EC50 is commonly meant the midpoint of the concentration-response curve. Consider `COC(=O)NCc1cnn(Cc2cc(OC)c3c(NS(=O)(=O)c4cc5c(cc4OC)CCC5)noc3c2)c1` [Syn. Ex. 25, methyl ((1-((4-methoxy-3-((6-methoxy-2,3-dihydro-1H-indene)-5-sulfonamido)benzo[d]isoxazol-6-yl)methyl)-1H-pyrazol-4-yl)methyl)carbamate], for which the IC50 on GST-Tagged Kat6B turned out to be 722 nM. In addition, in experiment [1], the “Average Kat6A % inhibition @ 1 μM” value came out at 100% and the “Average Kat6A % inhibition @ 10 μM” value worked out at 100%. In addition, the half-maximal inhibitory concentration (IC50) at FLAG-Tagged Kat6A was found to be 2 nM. In addition, the EC50 with ZR-75-1 cells was less than 100 nM.

In general, inhibition refers to the drop in the measured response relative to a control, in per cent. For the compound `C=C(F)C(=O)NCc1cnn(Cc2cc(OC)c3c(NS(=O)(=O)c4cc(CC)ccc4OC)noc3c2)c1` [Syn. Ex. 14, N-((1-((3-((5-ethyl-2-methoxyphenyl)sulfonamido)-4-methoxybenzo[d]isoxazol-6-yl)methyl)-1H-pyrazol-4-yl)methyl)-2-fluoroacrylamide], at GST-Tagged Kat6B, the half-inhibitory concentration (IC50) was 878 nM. For the same compound, in experiment [1], the inhibition at 1 µM was found to be 100% and the inhibition at 10 µM came out at 100%. In addition, the IC50 at FLAG-Tagged Kat6A stood at 2 nM. For the same compound, in the experiment with ZR-75-1 cells (Homo sapiens), the EC50 was less than 100 nM.

Turning to `COC(=O)NCc1cnn(Cc2cc(OC)c3c(NS(=O)(=O)c4ccccc4OC)noc3c2)c1` [Syn. Ex. 7, methyl ((1-((4-methoxy-3-((2-methoxyphenyl)sulfonamido)benzo[d]isoxazol-6-yl)methyl)-1H-pyrazol-4-yl)methyl) carbamate], the IC50 at GST-Tagged Kat6B was determined as 571 nM. In experiment [1], the “Average Kat6A % inhibition @ 1 μM” value is recorded as 97% and the “Average Kat6A % inhibition @ 10 μM” value is given as 99%. Moreover, the IC50 on FLAG-Tagged Kat6A stood at 22 nM. Besides, in the experiment on ZR-75-1 cells, the EC50 is less than 100 nM.

With `COC(=O)NCc1cnn(Cc2cc(OC(F)F)c3c(NS(=O)(=O)c4c(OC)cccc4OC)noc3c2)c1` [Syn. Ex. 50, methyl ((1-((4-(difluoromethoxy)-3-((2,6-dimethoxyphenyl)sulfonamido)benzo[d]isoxazol-6-yl)methyl)-1H-pyrazol-4-yl)methyl)carbamate], the IC50 on GST-Tagged Kat6B was found to be 2400 nM. In experiment [1], the inhibition at 1 µM stood at 98% and the inhibition at 10 µM came to 96%. Also, the half-inhibitory concentration (IC50) on FLAG-Tagged Kat6A was found to be 34 nM. In the experiment with ZR-75-1 cells (Homo sapiens), the concentration giving a half-maximal response (EC50) fell in the range of 100 to 1000 nM.

Consider `CC#CC(=O)NCc1cnn(Cc2cc(OC)c3c(NS(=O)(=O)c4cc(CC)ccc4OC)noc3c2)c1` [Syn. Ex. 15, N-((1-((3-((5-ethyl-2-methoxyphenyl)sulfonamido)-4-methoxybenzo[d]isoxazol-6-yl)methyl)-1H-pyrazol-4-yl)methyl)but-2-ynamide], for which, on GST-Tagged Kat6B, the IC50 stood at 1020 nM. In experiment [1], the inhibition at 1 µM is 100% and the inhibition at 10 µM came to 100%. In addition, on FLAG-Tagged Kat6A, the IC50 came out at 5 nM. In the experiment with ZR-75-1 cells (Homo sapiens), this compound showed an EC50 of 100 to 1000 nM.

As to `C=C(F)C(=O)NCc1cnn(Cc2cc(OC(F)F)c3c(NS(=O)(=O)c4cc(CC)ccc4OC)noc3c2)c1` [Syn. Ex. 52, N-((1-((4-(difluoromethoxy)-3-((5-ethyl-2-methoxyphenyl)sulfonamido)benzo[d]isoxazol-6-yl)methyl)-1H-pyrazol-4-yl)methyl)-2-fluoroacrylamide], at GST-Tagged Kat6B, the IC50 stood at 3670 nM. Moreover, in experiment [1], the inhibition at 1 µM stood at 100% and the inhibition at 10 µM came out at 100%. In addition, the 50% inhibitory concentration (IC50) at FLAG-Tagged Kat6A amounted to 12 nM. Moreover, in the experiment with ZR-75-1 cells (Homo sapiens), the EC50 was in the range of 100 to 1000 nM.
